Measured values from patent publication US4459290A, “C-23-Modified derivatives of OMT, pharmaceutical compositions and method of use” (priority 1982, dated 1984).
Where a name gives a salt, the structure may show the parent alone. Read-outs that look alike come from different tables or passages of the source.

Legend:
[1] = tested on: Streptococcus pyogenes C203; assay: ED50 in mice experimentally infected with S. pyogenes C203 (Table VIII); format: in vivo
Experimental: The C-23 modified derivatives of OMT of this invention have shown in vivo antimicrobial activity against experimental infections. When two doses of test compound were administered to mice experimentally infected with a gram-positive bacterium, S. pyogenes C203, the activity observed was measured as an ED50 value [effective dose in mg/kg to protect 50% of the test animals: see Warren Wick, et al., J. Bacteriol. 81, 233-235 (1961)].

[2] = tested on: Haemophilus influenzae Holt; assay: MIC, standard agar-dilution assay (Table V); format: cell-based; settings: Haemophilus influenzae; H. influenzae Holt, ampicillin-sensitive strain; agar dilution; read-out: MIC
Experimental: (§1) The MIC's in Tables V and VI were determined by standard agar-dilution assays. The MIC's in Table VII were obtained using a conventional broth-dilution microtiter test.

[3] = tested on: Haemophilus influenzae R252; assay: MIC, standard agar-dilution assay (Table V); format: cell-based; settings: Haemophilus influenzae; H. influenzae R252, ampicillin-resistant strain; agar dilution; read-out: MIC
Experimental: as §1

Escherichia coli TEM = assay: MIC, standard agar-dilution assay (Table V); format: cell-based; settings: Escherichia coli
Experimental: as §1

[4] = tested on: Streptococcus pyogenes C203; assay: MIC, standard agar-dilution assay (Table V); format: cell-based; settings: Streptococcus pyogenes; S. pyogenes C203; agar dilution; read-out: MIC
Experimental: as §1

[5] = tested on: Streptococcus pneumoniae Park I; assay: microbe, parasite or virus in culture; format: cell-based; settings: Streptococcus pneumoniae; S. pneumoniae Park I; agar dilution; read-out: MIC
Experimental: (§2) Especially noteworthy is the improved activity against gram-negative bacteria for several derivatives when compared to the activity of OMT. […] The MIC's in Tables V and VI were determined by standard agar-dilution assays. The MIC's in Table VII were obtained using a conventional broth-dilution microtiter test.

Mycoplasma synoviae = assay: MIC, broth-dilution microtiter test (Table VII); format: cell-based; settings: Mycoplasmopsis synoviae
Experimental: as §2

[6] = tested on: Pasteurella multocida 22A; assay: MIC, broth-dilution microtiter test (Table VII); format: cell-based; settings: Pasteurella multocida; P. multocida 22A; broth-dilution microtiter; read-out: MIC
Experimental: as §2

[7] = tested on: Pasteurella multocida 68C; assay: MIC, broth-dilution microtiter test (Table VII); format: cell-based; settings: Pasteurella multocida; P. multocida 68C; broth-dilution microtiter; read-out: MIC
Experimental: as §2

[8] = tested on: Pasteurella multocida 17E; assay: MIC, broth-dilution microtiter test (Table VII); format: cell-based; settings: Pasteurella multocida, 17E
Experimental: as §2

[9] = tested on: Pasteurella hemolytica 22C; assay: MIC, broth-dilution microtiter test (Table VII); format: cell-based; settings: Pasteurella, P. hemolytica 22C, read-out: MIC
Experimental: as §2

[10] = tested on: Pasteurella multocida 60A; assay: MIC, broth-dilution microtiter test (Table VII); format: cell-based; settings: Pasteurella multocida, 60A
Experimental: as §2

Mycoplasma hyorhinis = assay: MIC, broth-dilution microtiter test (Table VII); format: cell-based; settings: M. hyorhinis; broth-dilution microtiter; read-out: MIC
Experimental: as §2

[11] = tested on: Pasteurella hemolytica 41D; assay: MIC, broth-dilution microtiter test (Table VII); format: cell-based; settings: Pasteurella, P. hemolytica 41D, read-out: MIC
Experimental: as §2

Mycoplasma gallisepticum = assay: MIC, broth-dilution microtiter test (Table VII); format: cell-based; settings: Mycoplasmoides gallisepticum
Experimental: as §2

[12] = tested on: Pasteurella hemolytica 23C; assay: MIC, broth-dilution microtiter test (Table VII); format: cell-based; settings: Pasteurella, P. hemolytica 23C, read-out: MIC
Experimental: as §2

Streptococcus sp. 80 = assay: MIC, broth-dilution microtiter test (Table VII); format: cell-based; settings: Streptococcus sp. 80; broth-dilution microtiter; read-out: MIC
Experimental: as §2

Staphylococcus aureus = assay: MIC, broth-dilution microtiter test (Table VII); format: cell-based; settings: Staphylococcus aureus; S. aureus; broth-dilution microtiter; read-out: MIC
Experimental: as §2

[13] = tested on: Pasteurella multocida 40G; assay: MIC, broth-dilution microtiter test (Table VII); format: cell-based; settings: Pasteurella multocida; P. multocida 40G; broth-dilution microtiter; read-out: MIC
Experimental: as §2

Pasteurella multocida = assay: Protection of one-day-old chicks against Pasteurella multocida infection (Table IX); format: in vivo; settings: subcutaneous 30 mg/kg × 2, 1 and 4 hours post-challenge
Experimental: The C-23 modified derivatives of OMT have also shown in vivo antibacterial activity against infections induced by gram-negative bacteria. Table IX summarizes the results of tests in which illustrative compounds were evaluated against Pasteurella infections in one-day-old chicks. The compounds were administered by subcutaneous injection at a dosage of 30 mg/kg, 1 and 4 hours post-challenge of the chicks with Pasteurella multocida (0.1 ml of a twenty-hour tryptose broth culture of an avian P. multocida given subcutaneously). In the tests, all ten non-medicated infected chicks died within 24 hours of Pasteurella challenge.

[14] = tested on: Staphylococcus aureus V41; assay: MIC, standard agar-dilution assay (Table V); format: cell-based; settings: Staphylococcus aureus, V41
Experimental: as §2

Escherichia coli EC14 = assay: MIC, standard agar-dilution assay (Table V); format: cell-based; settings: Escherichia coli, EC14
Experimental: as §2

[15] = tested on: Staphylococcus aureus X400; assay: MIC, standard agar-dilution assay (Table V); format: cell-based; settings: Staphylococcus aureus, X400
Experimental: as §2

[16] = tested on: Klebsiella pneumoniae X26; assay: MIC, standard agar-dilution assay (Table V); format: cell-based; settings: Klebsiella pneumoniae; K. pneumoniae X26; agar dilution; read-out: MIC
Experimental: as §2

[17] = tested on: Klebsiella pneumoniae KAE; assay: MIC, standard agar-dilution assay (Table V); format: cell-based; settings: Klebsiella pneumoniae
Experimental: as §2

[18] = tested on: Staphylococcus aureus S13E; assay: MIC, standard agar-dilution assay (Table V); format: cell-based; settings: Staphylococcus aureus, S13E
Experimental: as §2

[19] = tested on: Streptococcus Group D X66; assay: MIC, standard agar-dilution assay (Table V); format: cell-based
Experimental: as §2

[20] = tested on: Staphylococcus epidermidis EPI1; assay: MIC, standard agar-dilution assay (Table V); format: cell-based; settings: Staphylococcus epidermidis; S. epidermidis EPI1; agar dilution; read-out: MIC
Experimental: as §2

Streptococcus Group 9960 = assay: MIC, standard agar-dilution assay (Table V); format: cell-based; settings: GROUP9960
Experimental: as §2

Escherichia coli N10 = assay: MIC, standard agar-dilution assay (Table V); format: cell-based; settings: Escherichia coli, N10
Experimental: as §2

[21] = tested on: Staphylococcus epidermidis EPI2; assay: MIC, standard agar-dilution assay (Table V); format: cell-based; settings: Staphylococcus epidermidis, EPI2
Experimental: as §2

[22] = tested on: Staphylococcus aureus X1.1; assay: MIC, standard agar-dilution assay (Table V); format: cell-based; settings: Staphylococcus aureus, X1.1
Experimental: as §2

Shigella sonnei N9 = assay: MIC, standard agar-dilution assay (Table V); format: cell-based
Experimental: as §2

CCC1OC(=O)CC(O)C(C)C(OC2OC(C)C(O)C(N(C)C)C2O)C(CC=O)CC(C)C(=O)C=CC(C)=CC1CNC(=O)[C@H](N)c1ccccc1 (single isomer, unassigned) [Compound 12, 23-Deoxy-23-N-(D-(-)-phenylglycyl)amino-OMT bis(trifluoroacetate) salt]
ED50 ([1]; C203, po, read-out: ED50, Oral): > 100 mg/kg | ED50 ([1]; C203, sc, mice, subcutaneous, doses given 1 and 4 hours postinfection, read-out: ED50, Subcutaneous): 6.2 mg/kg | MIC [2]: 16 µg/mL | MIC [3]: 16 µg/mL | MIC (Escherichia coli TEM): > 128 µg/mL | MIC [4]: 0.5 µg/mL | MIC [5]: 0.5 µg/mL | MIC (Mycoplasma synoviae): 3.12 µg/mL | MIC [6]: 25 µg/mL | MIC [7]: 25 µg/mL | MIC [8]: 12.5 µg/mL | MIC [9]: 50 µg/mL | MIC [10]: 12.5 µg/mL | MIC (Mycoplasma hyorhinis): > 50 µg/mL | MIC [11]: 50 µg/mL | MIC (Mycoplasma gallisepticum): 3.12 µg/mL | MIC [12]: 50 µg/mL | MIC (Streptococcus sp. 80): 6.25 µg/mL | MIC (Staphylococcus aureus): 6.25 µg/mL | MIC [13]: 25 µg/mL | Number of deaths/number treated (Pasteurella multocida): 9/10 | MIC [14]: 8 µg/mL | MIC (Escherichia coli EC14): > 128 µg/mL | MIC [15]: 8 µg/mL | MIC [16]: 16 µg/mL | MIC [17]: > 128 µg/mL | MIC [18]: 8 µg/mL | MIC [19]: 8 µg/mL | MIC [20]: 4 µg/mL | MIC (Streptococcus Group 9960): 8 µg/mL | MIC (Escherichia coli N10): > 128 µg/mL | MIC [21]: 8 µg/mL | MIC [22]: 4 µg/mL | MIC (Shigella sonnei N9): > 128 µg/mL
